# Source: patent US8252945B2, “Protective agent for retinal neuronal cell comprising indazole derivative as active ingredient” (UBE Industries, Ltd., priority 2005, dated 2012)
row,SMILES,melting point
1,CC(C)(N)c1ccc(-c2ccc3[nH]ncc3c2[N+](=O)[O-])cc1.Cl,255 to 261 °C (dec.)
2,CN(C)c1c(-c2ccc(C(C)(C)N)cc2)ccc2[nH]ncc12.Cl.Cl.Cl,219 to 224 °C (dec.)
3,CC(C)(N)c1ccc(-c2ccc3[nH]ncc3c2C2CC2)nc1.Cl.Cl.Cl,209 to 213 °C (dec.)
4,CC(C)(N)c1ccc(-c2ccc3[nH]ncc3c2C#N)cc1.Cl,270 to 272 °C
5,COc1c(-c2ccc(C(C)(C)N)cc2)ccc2[nH]ncc12.Cl.Cl,258 to 261 °C (dec.)
6,CC(C)(N)c1ccc(-c2ccc3[nH]ncc3c2OC(F)F)nc1.Cl.Cl.Cl,170 to 173 °C
7,CC(C)(N)c1ccc(-c2ccc3[nH]ncc3c2-c2ccno2)cc1.Cl.Cl,256 to 258 °C (dec.)
8,"CN(C)/C=C/C(=O)c1c(-c2ccc(C(C)(C)NC(=O)OC(C)(C)C)cc2)ccc2nn(C3CCCCO3)cc12 (centres unmarked) [Compound 14, 5-[4-(1-tert-butoxycarbonylamino-1-methylethyl)phenyl]-4-(3-dimethylaminoacryloyl)-2-(tetrahydropyran-2-yl)-2H-indazole]",191 to 194 °C
